Laboratory results taken from patent publication US20180085341A1, “METHODS FOR TREATING CANCER” (BOSTON BIOMEDICAL, INC., priority 2015, published 2018).

Experiments:
Stat3 pathway = details: cellular; according to U.S. Pat. No. 8,877,803; cited from earlier work
[1] = system: cancer patients (CRC patients); test: clinical trials, survival by Stat3/pStat3 expression level; assay type: in vivo, human; details: after treatment in clinical trials; at least in CRC patients
Source text: Thus, the higher the level of pStat3 found in a cancer patient before treatment, at least in CRC patients, the higher the overall survival (OS) upon administering a treatment comprising a compound of formula (I).

p-Stat3 and β-catenin = test: cancer stemness biomarkers in human colon cancer xenograft tumor (SW480), immunofluorescence; assay type: in vivo; details: SW480 xenograft in nude mice, e.g. 50 mg/kg BID oral gavage, tumors harvested 24 hours after first dosing, FIG. 5
Procedure: The effects of 2-acetylnaphtho[2,3-b]furan-4,9-dione, a compound of formula (I), on cancer stem cell markers was examined in cancer xenograft models with and without paclitaxel.
Human cancer cells were subcutaneously implanted into the right flank of 5-7 weeks old female athymic nude mice. When tumor size reached 200 mm^3, animals were treated with 2-acetylnaphtho[2,3-b]furan-4,9-dione, for example, at 50 mg/kg (BID) by oral gavage (n=3/group), paclitaxel, or a combination of 2-acetylnaphtho[2,3-b]furan-4,9-dione and paclitaxel. Tumors were harvested at 24 hours after first dosing.
The harvested tissues were fixed in 3.7% neutral buffered formaldehyde at 4° C. for overnight. The paraffin was embedded, cut to about 5 microns, and affixed onto positively-charged slides. After being baked and de-paraffinized, the slides with tumor or control tissues were incubated in 10 mM sodium citrate (pH 6.0) for 10 minutes. After antigen retrieval, slides were probed with primary antibodies P-STAT3 (rabbit, Cell Signaling, 1:100), β-Catenine (mouse, Santa Cruz, 1:400) at 4° C. overnight, and then Alexa Fluor fluorescent dyes-conjugated secondary antibodies (1:500, Invitrogen). After mounting, the slides with ProLong mounting medium with DAPI (Invitrogen) were examined under a Zeiss fluorescence microscope with 20× objective, and analyzed with Zen software.

[2] = open label phase Ib dose-escalation study, safety, tolerability and RP2D; assay type: in vivo, human; details: in combination with weekly paclitaxel
Procedure: In the open label phase lb dose-escalation study, the safety, tolerability and recommended phase 2 dose (RP2D) of 2-acetylnaphtho[2,3-b]furan-4,9-dione in combination with paclitaxel were assessed in adult patients with advanced solid tumors.
The effects of 2-acetylnaphtho[2,3-b]furan-4,9-dione in combination with paclitaxel were clinically evaluated. […] Phase II accrual to disease-specific cohorts included patients with advanced, heavily pre-treated metastatic non-small cell lung cancer (NSCLC).

[3] = system: human lung cancer xenograft (A549); test: human lung cancer xenograft (A549) model, metabolic tumor volume; assay type: in vivo, mice; details: 2-acetylnaphtho[2,3-b]furan-4,9-dione 100 mg/kg daily oral, paclitaxel 10.0 mg/kg q3d iv, relative to control, FIG. 7
Procedure: The effects of 2-acetylnaphtho[2,3-b]furan-4,9-dione was examined in a human lung cancer xenograft (A549) model. Human lung cancer cells were implanted in mice and the resulting tumors were allowed to grow to a pre-determined size. Mice were treated orally with vehicle, 2-acetylnaphtho[2,3-b]furan-4,9-dione (100 mg/kg, daily, oral), paclitaxel (10.0 mg/kg, q3d, iv), or the combination of 2-acetylnaphtho[2,3-b]furan-4,9-dione (100 mg/kg, daily, oral) and paclitaxel (10.0 mg/kg, q3d, iv). The tumor sizes were monitored.

[4] = system: patients with advanced, previously treated pancreatic adenocarcinoma; details: weekly paclitaxel alone; Oettle et al, Anticancer Drugs 2000; cited from earlier work
pStat3 and β-catenin = test: cancer stemness biomarkers in pancreatic adenocarcinoma cancer stem cells (Panc-1) in vitro; assay type: cell-based, human; details: Panc-1 cancer stem cells, FIG. 6

Compound	IC50 (Stat3 pathway)	overall survival of patients with higher expression levels of Stat3 [1]	expression of p-Stat3 and β-catenin stem cell markers (p-Stat3 and β-catenin)	recommended phase 2 dose of 2-acetylnaphtho[2,3-b]furan-4,9-dione [2]	metabolic tumor volume [3]	median overall survival (mOS) [4]	staining for stem cell markers (pStat3, β-catenin) (pStat3 and β-catenin)
CC(=O)c1cc2c(o1)C(=O)c1ccccc1C2=O [2-acetylnaphtho[2,3-b]furan-4,9-dione]	~250 nM	prolonged overall survival	dramatically reduced expression	480 mg BID	reduced metabolic tumor volume relative to control	–	–
CC(=O)O[C@H]1C(=O)[C@@]2(C)[C@H]([C@H](OC(=O)c3ccccc3)[C@]3(O)C[C@H](OC(=O)[C@H](O)[C@@H](NC(=O)c4ccccc4)c4ccccc4)C(C)=C1C3(C)C)[C@]1(OC(C)=O)CO[C@@H]1C[C@@H]2O [paclitaxel]	–	–	–	–	reduced metabolic tumor volume relative to control	about 17.5 weeks	enhanced staining
